The test system of one test is field poppy. The test is described as follows: Test D pre-/postemergence herbicide test. The conditions noted are these: for Plant response rating: Field Poppy, scale 0 to 100; for Plant response rating, Field Poppy: scale 0 to 100 (0 no effect, 100 complete control). Type of test: in vivo, Papaver rhoeas. The essentials:
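Postemergence sprays were made on plants at the 1- to 4-leaf stage in peat-based medium, and preemergence sprays on seeds planted in silt loam. The formulation was a non-phytotoxic solvent mixture containing surfactant. Plants were compared with controls after 7 to 21 days and rated visually on a 0–100 scale.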

The test system of the next test is surinam grass. The test is described as follows: Test E preemergence herbicide test. Details: key: 0 = no effect, 100 = complete control. Type of test: in vivo, Brachiaria decumbens. The method, boiled down:
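Seeds sown in silt loam soil received preemergence treatment with compound in a non-phytotoxic solvent mixture containing surfactant. After 21 days in the greenhouse, plants were visually rated against untreated controls on a 0 (no effect) to 100 (complete control) scale.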

For a further test, the system named is goosegrass. The experiment in a line: Test E preemergence herbicide test. Type of test: in vivo, Eleusine indica. Also on record: key: 0 = no effect, 100 = complete control. The source says: Seeds of plant species selected from corn (Zea mays), soybean (Glycine max), velvetleaf (Abutilon theophrasti), lambsquarters (Chenopodium album), wild poinsettia (Euphorbia heterophylla), pigweed, palmer (palmer pigweed, Amaranthus palmeri), waterhemp (common waterhemp, Amaranthus rudis), surinam grass (Brachiaria decumbens), crabgrass, large (large crabgrass, Digitaria sanguinalis), crabgrass, Brazil (Brazilian crabgrass, Digitaria horizontalis), panicum, fall (fall panicum, Panicum dichotomiflorum), foxtail, giant (giant foxtail, Setaria faberii), foxtail, green (green foxtail, Setaria viridis), goosegrass (Eleusine indica), johnsongrass (Sorghum halepense), ragweed (common ragweed, Ambrosia elatior), barnyardgrass (Echinochloa crus-galli), sandbur (southern sandbur, Cenchrus echinatus), arrowleaf […] rhombifolia), ryegrass, Italian (Italian ryegrass, Lolium multiflorum), dayflower, VA (Virginia dayflower, Commelina virginica), field bindweed (Convolvulus arvensis), morningglory (Ipomoea coccinea), nightshade (eastern black nightshade, Solanum ptycanthum), kochia (Kochia scoparia), nutsedge, yellow (yellow nutsedge, Cyperus esculentus), cocklebur (common cocklebur, Xanthium strumarium), smartweed (ladysthumb smartweed, Polygonum Persicaria) and beggarticks (hairy beggarticks, Bidens pilosa), were planted into a silt loam soil and treated preemergence with test chemicals formulated in a non-phytotoxic solvent mixture which included a surfactant. Treated plants and controls were maintained in a greenhouse for 21 days, after which time all species were compared to controls and visually evaluated. Plant response ratings, summarized in Table E, are based on a scale of 0 to 100 where 0 is no effect and 100 is complete control. A dash (-) response means no test result.

The subject of a further test is velvetleaf. The test is described as follows: Test A pre-/postemergence herbicide test. In kind it is in vivo, Abutilon theophrasti. Conditions: for pest or weed control at 1000 g/ha: 1000 g ai/ha; for pest or weed control at 500 g/ha: 500 g ai/ha. The essentials: (§1)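 Greenhouse pot test with pre- and postemergence application of surfactant-containing solvent formulations. Postemergence plants were 2–10 cm, one- to two-leaf stage. Response scored visually after ~10 days, 0 (no effect) to 100 (complete control).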

Another test has as its system ryegrass, Italian. The experiment in a line: Test A pre-/postemergence herbicide test. In kind it is in vivo, Lolium multiflorum. The conditions noted are these: for Plant response rating, Ryegrass, Italian: 0 to 100 scale. The method, boiled down:
as §1

[1] abbreviates: Abutilon theophrasti, post-emergence, 240 h, Postemergence, 0 to 100 scale (0 no effect, 100 complete control), read-out: Plant response rating, Velvetleaf.
Setting [2] is: 125 g ai/ha, visual rating, 0 no effect, 100 complete control, approximately 10 days, preemergence.
Setting [3] is: Postemergence, 125 g ai/ha, 0 is no effect, 100 is complete control.
Where [4] appears, read: preemergence, 500 g ai/ha, 0 is no effect and 100 is complete control.

Molecules are shown by their SMILES. Where two headings read alike, the source gives them in different places.

`O=C1NCC(c2ccc(F)c(F)c2)C1C(=O)Nc1cccc(F)c1F` (centres unmarked) [Compound 17, N-(2,3-difluorophenyl)-4-(3,4-difluorophenyl)-2-oxo-3-pyrrolidinecarboxamide]: the Plant response rating in the test with field poppy (Postemergence, 16 g ai/ha) worked out at 0; with field poppy (Postemergence, 31 g ai/ha) it was 0; in the test on field poppy (Postemergence, 62 g ai/ha), 0; in the test on field poppy (Postemergence, 125 g ai/ha) it was 0; in the test on field poppy (Postemergence, 250 g ai/ha) it was 0. The “Plant response rating, Surinam Grass” value in the test with surinam grass (16 g ai/ha) is recorded as 0; with surinam grass (31 g ai/ha), 0; in the test on surinam grass (62 g ai/ha), 50; in the test on surinam grass (125 g ai/ha) it was 70; with surinam grass (250 g ai/ha), 75. Also, the “Plant response rating, Goosegrass” value with goosegrass (16 g ai/ha) stood at 0; with goosegrass (31 g ai/ha) it was 0; in the test with goosegrass (62 g ai/ha) it was 0; in the test on goosegrass (125 g ai/ha), 0; in the test with goosegrass (250 g ai/ha), 35. Besides, the pest or weed control at 1000 g/ha in the test with velvetleaf (setting [1]) was determined as 50%; in the test on velvetleaf (Abutilon theophrasti, pre-emergence, 240 h, Preemergence, visual rating on 0 to 100 scale (0 no effect, 100 complete control), approx. 10 days, read-out: Plant response rating, Velvetleaf) it was 40%.

Take `O=C1NCC(c2ccc(C(F)(F)F)cc2)C1C(=O)Nc1cccc(F)c1F` (centres unmarked) [Compound 80, N-(2,3-difluorophenyl)-2-oxo-4-[4-(trifluoromethyl)phenyl]-3-pyrrolidinecarboxamide]: the Plant response rating in the test with field poppy (Postemergence, 31 g ai/ha) stood at 25; with field poppy (Postemergence, 62 g ai/ha), 55; with field poppy (Postemergence, 125 g ai/ha), 20; in the test on field poppy (Postemergence, 250 g ai/ha) it was 50; in the test on field poppy (Preemergence, 125 g ai/ha), 100; in the test with field poppy (Preemergence, 250 g ai/ha), 100. The “Plant response rating, Field Poppy” value was found to be 100 in the test on field poppy (Preemergence, 62 g ai/ha) and 90 with field poppy (Preemergence, 31 g ai/ha). The “Plant response rating, Surinam Grass” value is on record as 30 with surinam grass (16 g ai/ha); 40 in the test with surinam grass (31 g ai/ha); 50 with surinam grass (62 g ai/ha); 60 in the test on surinam grass (125 g ai/ha); 70 in the test with surinam grass (250 g ai/ha). In addition, the “Plant response rating, Goosegrass” value with goosegrass (16 g ai/ha) stood at 10; in the test with goosegrass (31 g ai/ha), 30; in the test on goosegrass (62 g ai/ha), 60; with goosegrass (125 g ai/ha) it was 70; with goosegrass (250 g ai/ha), 80. The pest or weed control at 125 g/ha in the test on velvetleaf (Abutilon theophrasti, post-emergence, 240 h, Postemergence, 125 g ai/ha, 0 to 100 scale, 0 no effect, 100 complete control, read-out: Plant response rating, Velvetleaf) was 10%. The pest or weed control at 500 g/ha in the test on velvetleaf (setting [1]) is 60%; with velvetleaf (Abutilon theophrasti, pre-emergence, 240 h, preemergence, 0 to 100 scale, read-out: Plant response rating, Velvetleaf) it was 30%. For the same molecule, the “Velvetleaf plant response rating” value with velvetleaf (Preemergence, 125 g ai/ha, visual rating on 0 to 100 scale (0 no effect, 100 complete control)) is recorded as 0.

`O=C1NC[C@H](c2cccc(C(F)(F)F)c2)[C@H]1C(=O)Nc1ccccc1F` [Compound 204, (3R,4S)—N-(2-fluorophenyl)-2-oxo-4-[3-(trifluoromethyl)phenyl]-3-pyrrolidinecarboxamide]: the “Plant response rating, Ryegrass, Italian” value is on record as 20 in the test with ryegrass, Italian (setting [2]); 30 in the test with ryegrass, Italian (setting [3]); 50 in the test with ryegrass, Italian (setting [4]). Besides, in the test with ryegrass, Italian (Postemergence, 500 g ai/ha), the “Ryegrass, Italian plant response rating (0 to 100 scale, 0 is no effect, 100 is complete control)” value amounted to 50. For the same molecule, the “Plant response rating, Field Poppy” value with field poppy (Preemergence, 62 g ai/ha) amounted to 85; in the test with field poppy (Preemergence, 125 g ai/ha), 80; with field poppy (Preemergence, 31 g ai/ha), 75. Also, the Plant response rating with field poppy (Preemergence, 250 g ai/ha) amounted to 95. In addition, the “Plant response rating, Surinam Grass” value with surinam grass (31 g ai/ha) is 35; in the test on surinam grass (62 g ai/ha), 60; in the test on surinam grass (125 g ai/ha), 98; in the test on surinam grass (250 g ai/ha), 95. For the same molecule, the “Plant response rating, Goosegrass” value in the test on goosegrass (31 g ai/ha), in the test with goosegrass (62 g ai/ha), in the test on goosegrass (125 g ai/ha) and with goosegrass (250 g ai/ha) was 0 each time.

`O=C1NC[C@H](c2cccc(C(F)(F)F)c2)[C@H]1C(=O)Nc1cccc(F)c1F` [Compound 206]: the “Plant response rating, Ryegrass, Italian” value is on record as 40 in the test on ryegrass, Italian (setting [2]); 50 with ryegrass, Italian (setting [3]); 80 in the test on ryegrass, Italian (setting [4]). Moreover, the “Ryegrass, Italian plant response rating (0 to 100 scale, 0 is no effect, 100 is complete control)” value in the test with ryegrass, Italian (Postemergence, 500 g ai/ha) is listed as 60. In addition, the “Plant response rating, Field Poppy” value with field poppy (Preemergence, 62 g ai/ha) came to 90; in the test with field poppy (Preemergence, 125 g ai/ha), 90; with field poppy (Preemergence, 31 g ai/ha), 80. The molecule also yielded a Plant response rating in the test with field poppy (Preemergence, 250 g ai/ha) of 95. Besides, the “Plant response rating, Surinam Grass” value in the test with surinam grass (31 g ai/ha) came out at 50; in the test with surinam grass (62 g ai/ha) it was 95; in the test with surinam grass (125 g ai/ha), 85; in the test with surinam grass (250 g ai/ha), 98. For the same molecule, the “Plant response rating, Goosegrass” value in the test on goosegrass (31 g ai/ha) turned out to be 0; in the test with goosegrass (62 g ai/ha), 0; in the test with goosegrass (125 g ai/ha) it was 70; in the test with goosegrass (250 g ai/ha) it was 90.

The values above are taken from patent publication US10294202B2, “Pyrrolidinones as herbicides” (FMC Corporation, priority 2013, dated 2019).
